Here are results for 25 compounds from patent publication US10759781B2, “Substituted guanidine derivatives” (UBE INDUSTRIES, LTD., priority 2015, dated 2020).

The test has as its target T1, Human VAP-1 enzyme (Homo sapiens, UniProt Q16853).
T1 construct: purchased R&D Systems, Inc
T1 sequence (Q16853 1-763): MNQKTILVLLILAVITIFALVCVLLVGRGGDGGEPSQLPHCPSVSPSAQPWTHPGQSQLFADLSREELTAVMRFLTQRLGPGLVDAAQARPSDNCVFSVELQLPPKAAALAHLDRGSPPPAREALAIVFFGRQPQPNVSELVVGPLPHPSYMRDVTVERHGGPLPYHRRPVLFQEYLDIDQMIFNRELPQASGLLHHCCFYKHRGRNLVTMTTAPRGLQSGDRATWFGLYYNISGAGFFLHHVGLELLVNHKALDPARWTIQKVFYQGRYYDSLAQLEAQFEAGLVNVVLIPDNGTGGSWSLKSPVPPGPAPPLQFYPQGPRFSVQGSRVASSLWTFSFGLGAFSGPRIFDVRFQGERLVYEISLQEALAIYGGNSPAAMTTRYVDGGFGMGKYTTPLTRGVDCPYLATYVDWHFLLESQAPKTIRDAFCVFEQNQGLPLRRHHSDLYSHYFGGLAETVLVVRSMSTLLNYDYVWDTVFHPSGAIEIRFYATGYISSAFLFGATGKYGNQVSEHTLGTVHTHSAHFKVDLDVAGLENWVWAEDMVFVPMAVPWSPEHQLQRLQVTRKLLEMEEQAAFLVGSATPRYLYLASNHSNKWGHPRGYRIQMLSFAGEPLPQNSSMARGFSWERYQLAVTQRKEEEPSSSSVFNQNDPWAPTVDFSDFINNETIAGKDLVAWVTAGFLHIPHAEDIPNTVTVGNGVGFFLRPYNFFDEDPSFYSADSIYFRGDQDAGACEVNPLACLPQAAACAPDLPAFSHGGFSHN
Put plainly: Human VAP-1 enzyme inhibition test. Type of test: biochemical. The note with it: 1 h; compound 30 nM; 14C-benzylamine 100 μM; read-out: inhibition ratio (human VAP-1 enzyme). The method, then:
Human VAP-1 enzyme inhibition test
This test was conducted by modifying the method of P. H. Yu et al. (Diabetologia 40 1243 (1997)). Human VAP-1 enzyme (R&D Systems, Inc.) was pre-incubated in a 96-well plate with the compound dissolved in dimethylsulfoxide at room temperature for 20 minutes. Next, in a solution to the final volume of 200 μL, the enzyme reaction solution was incubated with ^14C-benzylamine (final concentration 100 μM) at 37° C. for 1 hour. The reaction was terminated by the addition of 100 μL of 2 M citric acid solution to the reaction solution. The oxidative product was extracted using a toluene/ethyl acetate mixture and the radioactivity was measured with a liquid scintillation counter. The inhibition ratio of the compound was calculated using the following equation. Inhibition ratio={1−[VAP-1 enzyme activity after treatment with the compound]/[VAP-1 enzyme activity in the presence of dimethylsulfoxide alone without the compound]}×100

For `CCOC(=O)CCCON=C1CN(c2ncc(-c3cccc(COC(=O)NC(=N)N)c3F)cn2)C1` [Example 114, Ethyl 4-[({1-[5-(3-{[(carbamimidoylcarbamoyl)oxy]methyl}-2-fluorophenyl)pyrimidin-2-yl]azetidin-3-ylidene}amino)oxy]butanoate], the inhibition at 0.03 µM is ≥ 50%.

Regarding `N=C(N)NC(=O)OCc1cccc(-c2cnc(N3CC(=NOCCCC(=O)O)C3)nc2)c1F` [Example 115, 4-[({1-[5-(3-{[(Carbamimidoylcarbamoyl)oxy]methyl}-2-fluorophenyl)pyrimidin-2-yl]azetidin-3-ylidene}amino)oxy]butanoic acid], the inhibition at 0.03 µM is ≥ 50%.

Consider `CNC(=O)CCCON=C1CN(c2ncc(-c3cccc(COC(=O)NC(=N)N)c3F)cn2)C1` [Example 116, 2-Fluoro-3-[2-(3-{[4-(methylamino)-4-oxobutoxy]imino}azetidin-1-yl)pyrimidin-5-yl]benzyl carbamimidoylcarbamate], for which the inhibition at 0.03 µM was ≥ 50%.

`CN(C)CCON=C1CN(c2ncc(-c3cccc(COC(=O)NC(=N)N)c3F)cn2)C1` [Example 117, 3-[2-(3-{[2-(Dimethylamino)ethoxy]imino}azetidin-1-yl)pyrimidin-5-yl]-2-fluorobenzyl carbamimidoylcarbamate]: the inhibition at 0.03 µM is ≥ 50%.

`CN(CCON=C1CN(c2ncc(-c3cccc(COC(=O)NC(=N)N)c3F)cn2)C1)Cc1ccccc1` [Example 118, 3-{2-[3-({2-[Benzyl(methyl)amino]ethoxy}imino)azetidin-1-yl]pyrimidin-5-yl}-2-fluorobenzyl carbamimidoylcarbamate]: the inhibition at 0.03 µM was ≥ 50%.

`CC(=O)NCC(CO)CON=C1CN(c2ncc(-c3cccc(COC(=O)NC(=N)N)c3F)cn2)C1` (stereo not shown) [Example 120, 3-[2-(3-{[3-Acetamido-2-(hydroxymethyl)propoxy]imino}azetidin-1-yl)pyrimidin-5-yl]-2-fluorobenzyl carbamimidoylcarbamate]: the inhibition at 0.03 µM is ≥ 50%.

Regarding `CN(C)CC(CO)CON=C1CN(c2ncc(-c3cccc(COC(=O)NC(=N)N)c3F)cn2)C1` (stereo not shown) [Example 122, 3-[2-(3-{[3-(Dimethylamino)-2-(hydroxymethyl)propoxy]imino}azetidin-1-yl)pyrimidin-5-yl]-2-fluorobenzyl carbamimidoylcarbamate], the inhibition at 0.03 µM was ≥ 50%.

Regarding `COC(CNC(C)=O)CON=C1CN(c2ncc(-c3cccc(COC(=O)NC(=N)N)c3F)cn2)C1` (stereo not shown) [Example 123, 3-(2-{3-[(3-Acetamido-2-methoxypropoxy)imino]azetidin-1-yl}pyrimidin-5-yl)-2-fluorobenzyl carbamimidoylcarbamate], the inhibition at 0.03 µM was ≥ 50%.

Turning to `N=C(N)NC(=O)OCc1cccc(-c2cnc(N3CC(=NOCCN4CCCCC4)C3)nc2)c1F` [Example 124, 2-Fluoro-3-[2-(3-{[2-(piperidin-1-yl)ethoxy]imino}azetidin-1-yl)pyrimidin-5-yl]benzyl carbamimidoylcarbamate], the inhibition at 0.03 µM was ≥ 50%.

As to `N=C(N)NC(=O)OCc1cccc(-c2cnc(N3CC(=NOCCN4CCOCC4)C3)nc2)c1F` [Example 125, 2-Fluoro-3-(2-{3-[(2-morpholinoethoxy)imino]azetidin-1-yl}pyrimidin-5-yl)benzyl carbamimidoylcarbamate], the inhibition at 0.03 µM was ≥ 50%.

On to `N=C(N)NC(=O)OCc1cccc(-c2cnc(N3CC(=NOCCN4CCC4)C3)nc2)c1F` [Example 126, 3-[2-(3-{[2-(Azetidin-1-yl)ethoxy]imino}azetidin-1-yl)pyrimidin-5-yl]-2-fluorobenzyl carbamimidoylcarbamate], for which the inhibition at 0.03 µM is ≥ 50%.

Regarding `N=C(N)NC(=O)OCc1cccc(-c2cnc(N3CC(=NOCCN4CC(F)C4)C3)nc2)c1F` [Example 128, 2-Fluoro-3-[2-(3-{[2-(3-fluoroazetidin-1-yl)ethoxy]imino}azetidin-1-yl)pyrimidin-5-yl]benzyl carbamimidoylcarbamate], the inhibition at 0.03 µM was ≥ 50%.

Consider `CN1CCOC(CON=C2CN(c3ncc(-c4cccc(COC(=O)NC(=N)N)c4F)cn3)C2)C1` (stereo not shown) [Example 130, 2-Fluoro-3-[2-(3-{[(4-methylmorpholin-2-yl)methoxy]imino}azetidin-1-yl)pyrimidin-5-yl]benzyl carbamimidoylcarbamate], for which the inhibition at 0.03 µM was ≥ 50%.

Consider `CC(=O)N1CCOC(CON=C2CN(c3ncc(-c4cccc(COC(=O)NC(=N)N)c4F)cn3)C2)C1` (stereo not shown) [Example 131, 3-[2-(3-{[(4-Acetylmorpholin-2-yl)methoxy]imino}azetidin-1-yl)pyrimidin-5-yl]-2-fluorobenzyl carbamimidoylcarbamate], for which the inhibition at 0.03 µM is ≥ 50%.

With `N=C(N)NC(=O)OCc1cccc(-c2cnc(N3CC(=NOCC4CCC(=O)O4)C3)nc2)c1F` (stereo not shown) [Example 132, 2-Fluoro-3-[2-(3-{[(5-oxotetrahydrofuran-2-yl)methoxy]imino}azetidin-1-yl)pyrimidin-5-yl]benzyl carbamimidoylcarbamate], the inhibition at 0.03 µM was ≥ 50%.

As to `N=C(N)NC(=O)OCc1cccc(-c2cnc(N3CC(=NOCc4ccccc4)C3)nc2)c1F` [Example 135, 3-(2-{3-[(Benzyloxy)imino]azetidin-1-yl}pyrimidin-5-yl)-2-fluorobenzyl carbamimidoylcarbamate], the inhibition at 0.03 µM was ≥ 50%.

On to `COc1ccc(CON=C2CN(c3ncc(-c4cccc(COC(=O)NC(=N)N)c4F)cn3)C2)cc1` [Example 136, 2-Fluoro-3-[2-(3-{[(4-methoxybenzyl)oxy]imino}azetidin-1-yl)pyrimidin-5-yl]benzyl carbamimidoylcarbamate], for which the inhibition at 0.03 µM was ≥ 50%.

Take `CN1CC(ON=C2CN(c3ncc(-c4cccc(COC(=O)NC(=N)N)c4F)cn3)C2)C1` [Example 137, 2-Fluoro-3-[2-(3-{[(1-methylazetidin-3-yl)oxy]imino}azetidin-1-yl)pyrimidin-5-yl]benzyl carbamimidoylcarbamate]: the inhibition at 0.03 µM is ≥ 50%.

On to `CC(=O)N1CC(ON=C2CN(c3ncc(-c4cccc(COC(=O)NC(=N)N)c4F)cn3)C2)C1` [Example 138, 3-[2-(3-{[(1-Acetylazetidin-3-yl)oxy]imino}azetidin-1-yl)pyrimidin-5-yl]-2-fluorobenzyl carbamimidoylcarbamate], for which the inhibition at 0.03 µM was ≥ 50%.

Regarding `N=C(N)NC(=O)OCc1cccc(-c2cnc(N3CC(=NOC4CN(Cc5ccccc5)C4)C3)nc2)c1F` [Example 139, 3-[2-(3-{[(1-Benzylazetidin-3-yl)oxy]imino}azetidin-1-yl)pyrimidin-5-yl]-2-fluorobenzyl carbamimidoylcarbamate], the inhibition at 0.03 µM was ≥ 50%.

As for `N=C(N)NC(=O)OCc1cccc(-c2cnc(N3CC(=NOC4CN(CC(F)(F)F)C4)C3)nc2)c1F` [Example 140, 2-Fluoro-3-{2-[3-({[1-(2,2,2-trifluoroethyl)azetidin-3-yl]oxy}imino)azetidin-1-yl]pyrimidin-5-yl}benzyl carbamimidoylcarbamate], the inhibition at 0.03 µM is ≥ 50%.

With `CCN1CC(ON=C2CN(c3ncc(-c4cccc(COC(=O)NC(=N)N)c4F)cn3)C2)C1` [Example 142, 3-[2-(3-{[(1-Ethylazetidin-3-yl)oxy]imino}azetidin-1-yl)pyrimidin-5-yl]-2-fluorobenzyl carbamimidoylcarbamate], the inhibition at 0.03 µM is ≥ 50%.

Turning to `COC(=O)N1CC(ON=C2CN(c3ncc(-c4cccc(COC(=O)NC(=N)N)c4F)cn3)C2)C1` [Example 143, Methyl 3-[({1-[5-(3-{[(carbamimidoylcarbamoyl)oxy]methyl}-2-fluorophenyl)pyrimidin-2-yl]azetidin-3-ylidene}amino)oxy]azetidin-1-carboxylate], the inhibition at 0.03 µM was ≥ 50%.

Regarding `N=C(N)NC(=O)OCc1cccc(-c2cnc(N3CC(=NOC4CN(CCO)C4)C3)nc2)c1F` [Example 146, 2-Fluoro-3-{2-[3-({[1-(2-hydroxyethyl)azetidin-3-yl]oxy}imino)azetidin-1-yl]pyrimidin-5-yl}benzyl carbamimidoylcarbamate], the inhibition at 0.03 µM is ≥ 50%.

For the compound `COCCN1CC(ON=C2CN(c3ncc(-c4cccc(COC(=O)NC(=N)N)c4F)cn3)C2)C1` [Example 147, 2-Fluoro-3-{2-[3-({[1-(2-methoxyethyl)azetidin-3-yl]oxy}imino)azetidin-1-yl]pyrimidin-5-yl}benzyl carbamimidoylcarbamate], the inhibition at 0.03 µM is ≥ 50%.
